Test results as given in patent US11357779B2 (G1 Therapeutics, Inc., priority 2018, dated 2022).
Where two headings read alike, the source gives them in different places. Blank lines part the entries; values can stand above or below the molecule they belong to.

How the values were obtained:
ME-016 tumor = test: Murine BRAFmut melanoma PDX model, tumor growth and survival; format: in vivo; details: ME-016 tumor-containing mice; Compound I 100 mg/kg, dabrafenib 25 mg/kg, trametinib 1 mg/kg
Method: Mice containing a ME-016 tumor were treated with vehicle, Compound I (100 mg/kg), dabrafenib (25 mg/kg), trametinib (1 mg/kg), Compound I+dabrafenib, Compound I+trametinib, dabrafenib+trametinib, and Compound I+dabrafenib+trametinib.

[1] = Steady-state AUC0-24,ss, (AUC0-24,ss)/dose, half-life and time to steady state: Compound I versus palbociclib, ribociclib, abemaciclib; format: in vivo, human; details: for (AUC0-24,ss)/Dose (mg): in h·ng/mL/mg; for Time to Steady State / Time to Steady-State: FDA labeled dose, five half-lives; for AUC(0-t): human, in vivo, read-out: Extrapolated AUC0-24,ss
Source text: The time to reach steady state was defined as five half-lives (97% steady state achieved). […] The AUC data are presented as the arithmetic mean. […] The AUC data are presented as the geometric mean. The steady-state AUC0-24 for various BID doses of abemaciclib provided in Table 89 was obtained from the above cited prior published studies. The AUC data are presented as the geometric mean.

[2] = cited from earlier work; for AUC0-24,ss: geometric mean; for AUC0-10,ss: arithmetic mean
[3] = cited from earlier work
[4] = trial not given; cited from earlier work
[5] = abemaciclib, cited from earlier work
[6] = Grade 3/4 neutropenia and leukopenia; cited from earlier work
[7] = MONALEESA-2; cited from earlier work

Structure (SMILES): CC(C)(C)c1nc(-c2cccc(NS(=O)(=O)c3c(F)cccc3F)c2F)c(-c2ccnc(N)n2)s1 [Dabrefinib]
- Median OS (ME-016 tumor): 32 days

Structure (SMILES): CC(=O)Nc1cccc(-n2c(=O)n(C3CC3)c(=O)c3c(Nc4ccc(I)cc4F)n(C)c(=O)c(C)c32)c1 [Trametinib]
- Median OS (ME-016 tumor): 42.5 days

More lines, main results first:

- (AUC0-24,ss)/Dose (mg) ([1]; 75 mg BID): 17.33
- (AUC0-24,ss)/Dose (mg) ([1]; 100 mg BID): 39.10
- (AUC0-24,ss)/Dose (mg) ([1]; 150 mg BID): 28.53
- (AUC0-24,ss)/Dose (mg) ([1]; 200 mg BID): 27.60
Structure (SMILES): CCN1CCN(Cc2ccc(Nc3ncc(F)c(-c4cc(F)c5nc(C)n(C(C)C)c5c4)n3)nc2)CC1 [abemaciclib, 2-pyrimidinamine, N-[5-[(4-ethyl-1-piperazinyl)methyl]-2-pyridinyl]-5-fluoro-4-[4-fluoro-2-methyl-1-(1-methylethyl)-1H-benzimidazol-6-yl]-]
- AUC0-24,ss ([2]; 75 mg BID): 1300 ng·h/mL
- AUC0-24,ss ([2]; 100 mg BID): 3910 ng·h/mL
- AUC0-24,ss ([2]; 150 mg BID): 4280 ng·h/mL
- AUC0-24,ss ([2]; 200 mg BID): 5520 ng·h/mL
- Diarrhea, patients ([3]; MONARCH 1, abemaciclib alone): 90%
- Grade 3 diarrhea, patients ([3]; MONARCH 1, abemaciclib alone): 20%
- Neutropenia, patients ([3]; MONARCH 1, abemaciclib alone): 37%
- Grade >3 decrease in neutrophil count (based on laboratory findings), patients ([3]; MONARCH 1): 27%
- patients with diarrhea required a dose reduction [4]: 22%
- patients with diarrhea required dose omission [4]: 22%
- estimated geometric mean accumulation ratio ([5]; based on AUC): 3.2 (59% CV)
- estimated geometric mean accumulation ratio ([5]; based on Cmax): 2.3 (50% CV)
- T1/2 ([5]; human): roughly 18.3 hours

- Extrapolated AUC0-24,ss ([1]; 100 mg QD, AUC0-24=(AUC0-10)*2.49655): 1478 ng·h/mL
- Time to Steady State ([1]; 125 mg QD): 5.5 days
- Time to Steady-State ([1]; 125 mg QD): 132.5 h
- AUC(0-t) ([1]; 25 mg QD, AUC0-24=(AUC0-10)*2.49655): 297 ng·h/mL
- AUC(0-t) ([1]; 50 mg QD, AUC0-24=(AUC0-10)*2.49655): 684 ng·h/mL
- AUC(0-t) ([1]; 75 mg QD, AUC0-24=(AUC0-10)*2.49655): 1230 ng·h/mL
- AUC(0-t) ([1]; 125 mg QD, AUC0-24=(AUC0-10)*2.49655): 1810 ng·h/mL
- AUC(0-t) ([1]; 150 mg QD, AUC0-24=(AUC0-10)*2.49655): 2710 ng·h/mL
Structure (SMILES): CC(=O)c1c(C)c2cnc(Nc3ccc(N4CCNCC4)cn3)nc2n(C2CCCC2)c1=O [palbociclib, 6-acetyl-8-cyclopentyl-5-methyl-2-(5-piperazin-1-yl-pyridin-2-ylammino)-8H-pyrido-[2,3-d]-pyrimidin-7-one]
- AUC0-10,ss ([2]; 25 mg QD): 119 ng·h/mL
- AUC0-10,ss ([2]; 50 mg QD): 274 ng·h/mL
- AUC0-10,ss ([2]; 75 mg QD): 492 ng·h/mL
- AUC0-10,ss ([2]; 100 mg QD): 592 ng·h/mL
- Mean Half-Life ([2]; 125 mg QD, FDA labeled dose): 26.5 h
- AUC0-10,ss ([2]; 125 mg QD): 724 ng·h/mL
- AUC0-10,ss ([2]; 150 mg QD): 1084 ng·h/mL
- patients requiring a dose interruption [6]: 71%
- patients requiring a dose reduction [6]: 35%

- Time to Steady State ([1]; 600 mg QD): 6.8 days
- Time to Steady-State ([1]; 600 mg QD): 162.5 h
Structure (SMILES): CN(C)C(=O)c1cc2cnc(Nc3ccc(N4CCNCC4)cn3)nc2n1C1CCCC1 [ribociclib, 7-cyclopentyl-N,N-dimethyl-2-((5-(piperazin-1-yl)pyridin-2-yl)amino)-7H-pyrrolo[2,3-d]pyrimidine-6-carboxamide]
- neutropenia, most frequently reported adverse reaction [7]: 75%
